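96-well plates; 48 h exposure; 5 concentrations. Endpoints by linear interpolation between flanking doses. Not reached: highest tested concentration assigned. GI50 is the concentration that inhibits growth by half.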 The source made the active and inactive calls. No stated cut-off is given here; in the data, active = GI50 up to about 1.1 µM and inactive = higher.
Tests used:
Assay in all cases: DTP human tumour cell line panel, 48 h
[1] = system: SN12C
[2] = system: SNB-19
[3] = system: HT-29
[4] = system: SF-268
[5] = system: CAKI-1
[6] = system: TK-10
[7] = system: A549
[8] = system: SF-295
[9] = system: HOP-92
[10] = system: HCT-15
[11] = system: NCI-H23
[12] = system: ACHN
[13] = system: K562
[14] = system: HOP-62
[15] = system: SF-539
[16] = system: CCRF-CEM
[17] = system: HCC 2998

SMILES	GI50 [1]	GI50 [2]	GI50 [3]	GI50 [4]	GI50 [5]	GI50 [6]	GI50 [7]	GI50 [8]	GI50 [9]	GI50 [10] [µM]	GI50 [11]	GI50 [12]	GI50 [13]	GI50 [14]	GI50 [15]	GI50 [16]	GI50 [17]
Cc1cc(N(CCC#N)CCC#N)ccc1CC1N=C(c2ccccc2)OC1=O (stereo not given)	> 100 µM (inactive)	> 100 µM (inactive)	> 100 µM (inactive)	> 100 µM (inactive)	> 100 µM (inactive)	> 100 µM (inactive)	> 100 µM (inactive)	> 100 µM (inactive)	> 100 µM (inactive)	> 100	> 100 µM (inactive)	> 100 µM (inactive)	> 100 µM (inactive)	> 100 µM (inactive)	> 100 µM (inactive)	> 100 µM (inactive)	> 100 µM (inactive)
Cc1ccc(C)c2c1C1CCCCC3(OCCCO3)C21O (stereo not given)	> 100 µM (inactive)	> 100 µM (inactive)	> 100 µM (inactive)	> 100 µM (inactive)	> 100 µM (inactive)	> 100 µM (inactive)	> 100 µM (inactive)	> 100 µM (inactive)		> 100	> 100 µM (inactive)	> 100 µM (inactive)	> 100 µM (inactive)	> 100 µM (inactive)	> 100 µM (inactive)	> 100 µM (inactive)	> 100 µM (inactive)
CCCCCC(=O)OC[n+]1ccc2c(C)c3[nH]c4ccccc4c3c(C)c2c1	0.489 µM (active)		0.482 µM (active)	0.796 µM (active)	1.82 µM (inactive)	3.08 µM (inactive)	0.586 µM (active)	0.946 µM (active)	2.48 µM (inactive)	0.389	0.857 µM (active)	0.738 µM (active)		1.24 µM (inactive)	0.817 µM (active)		0.787 µM (active)
C/C(=N\NC(=O)CC(=O)Nc1ccc(C)cc1)c1cc2ccccc2oc1=O	> 100 µM (inactive)	> 100 µM (inactive)	> 100 µM (inactive)			> 100 µM (inactive)	> 100 µM (inactive)	> 100 µM (inactive)		> 100	> 100 µM (inactive)	> 100 µM (inactive)	> 100 µM (inactive)	> 100 µM (inactive)	> 100 µM (inactive)	> 100 µM (inactive)	
